Data: patent US8846739B2, “TGR5 agonists” (Exelixis Patent Company LLC, priority 2009, dated 2014)
Structures can show the parent of a compound that is named as a salt.

Assays:
[1] = molecular target: T1, human TGR5 (h-TGR5) (Homo sapiens, UniProt Q8TDU6); experiment: TGR5/CRE-Luciferase Assay; assay type: cell-based; settings: HEK 293 hTGR5/CRE-Luc cells, 6 hours incubation, read-out: CRE-Luc Agonist (EC50)
T1 sequence (Q8TDU6 1-330): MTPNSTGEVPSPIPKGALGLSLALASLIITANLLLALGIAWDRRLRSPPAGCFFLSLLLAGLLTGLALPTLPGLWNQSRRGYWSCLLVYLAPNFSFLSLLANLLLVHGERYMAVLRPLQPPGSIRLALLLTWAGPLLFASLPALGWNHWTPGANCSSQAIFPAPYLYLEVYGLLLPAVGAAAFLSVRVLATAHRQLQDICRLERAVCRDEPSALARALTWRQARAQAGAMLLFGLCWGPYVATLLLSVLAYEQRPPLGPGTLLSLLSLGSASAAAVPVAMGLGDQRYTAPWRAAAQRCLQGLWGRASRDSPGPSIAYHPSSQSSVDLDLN
Method in brief: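 HEK 293 CRE-Luciferase cells stably expressing the receptor, plated in DMEM 18-20 h before assay, then exposed to serially diluted compounds (DMEM with 5% DMSO) for 6 h. Luciferase read-out after lysis; EC50 from dose-response.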

[2] = molecular target: T2, h-TGR5 (Homo sapiens, UniProt Q8TDU6); experiment: TGR5 cAMP Assay using Cisbio cAMP Dynamic 2 htrf assay kit; assay type: cell-based; settings: hTGR5CRE-luc HEK 293 cells
T2 sequence (Q8TDU6 1-330): T1 sequence (Q8TDU6 1-330)

Row | Compound | EC50 [1] [µM] | EC50 [2] [µM]
1 | COc1cc(-n2c(C(C)(C)c3ccc(S(N)(=O)=O)c(Cl)c3)cnc2SCc2c(F)cc(C(=O)NCC[N+](C)(C)C)cc2Cl)ccc1F [Example 1a, 2-{[(4-{[(5-{1-[4-(aminosulfonyl)-3-chlorophenyl]-1-methylethyl}-1-[4-fluoro-3-(methyloxy)phenyl]-1H-imidazol-2-yl)thio]methyl}-3-chloro-5-fluorophenyl)carbonyl]amino}-N,N,N-trimethylethanaminium] | < 0.1 | < 0.1
2 | COc1cc(-n2c(C(C)(C)c3ccc4onc(N)c4c3)cnc2SCc2c(F)cc(C(=O)NCC[N+](C)(C)C)cc2Cl)ccc1F [Example 1b, 2-[({4-[({5-[1-(3-amino-1,2-benzisoxazol-5-yl)-1-methylethyl]-1-[4-fluoro-3-(methyloxy)phenyl]-1H-imidazol-2-yl}thio)methyl]-3-chloro-5-fluorophenyl}carbonyl)amino]-N,N,N-trimethylethanaminium] | < 0.1 | < 0.1
3 | CC(C)(c1ccc2onc(N)c2c1)c1cnc(SCc2c(F)cc(C(=O)NCC[N+](C)(C)C)cc2Cl)n1-c1ccc(F)cc1 [Example 1c, 2-[({4-[({5-[1-(3-amino-1,2-benzisoxazol-5-yl)-1-methylethyl]-1-(4-fluorophenyl)-1H-imidazol-2-yl}thio)methyl]-3-chloro-5-fluorophenyl}carbonyl)amino]-N,N,N-trimethylethanaminium] | < 0.1 | < 0.1
4 | COc1cc(C(C)(C)c2cnc(COc3c(F)cc(C(=O)NCC[N+](C)(C)C)cc3Cl)n2-c2ccc(F)cc2)ccc1Cl [Example 1e, 2-({[3-chloro-4-({[5-{1-[4-chloro-3-(methyloxy)phenyl]-1-methylethyl}-1-(4-fluorophenyl)-1H-imidazol-2-yl]methyl}oxy)-5-fluorophenyl]carbonyl}amino)-N,N,N-trimethylethanaminium] | < 0.1 | < 0.1
5 | COc1cc(C(C)(C)c2cnc(CCc3c(F)cc(C(=O)NCC[N+](C)(C)C)cc3Cl)n2-c2ccc(F)cc2)ccc1Cl [Example 1f, 2-{[(3-chloro-4-{2-[5-{1-[4-chloro-3-(methyloxy)phenyl]-1-methylethyl}-1-(4-fluorophenyl)-1H-imidazol-2-yl]ethyl}-5-fluorophenyl)carbonyl]amino}-N,N,N-trimethylethanaminium] | < 0.1 | < 0.1
6 | COc1cc(C(C)(C)c2cnc(SCc3c(F)cc(C(=O)NCC[N+]45CCN(CC4)CC5)cc3Cl)n2-c2ccc(F)cc2)ccc1Cl [Example 2, 1-(2-(3-chloro-4-((5-(2-(4-chloro-3-methoxyphenyl)propan-2-yl)-1-(4-fluorophenyl)-1H-imidazol-2-ylthio)methyl)-5-fluorobenzamido)ethyl)-4-aza-1-azoniabicyclo-[2.2.2]octane chloride hydrochloride] | < 0.1 | < 0.1
7 | COc1cc(C(C)(C)c2cnc(SCc3c(F)cc(C(=O)NCC[N+]45CCN(CC4)CC5)cc3Cl)n2-c2ccc(F)cc2)ccc1F [Example 2a, 1-[2-({[3-chloro-5-fluoro-4-({[5-{1-[4-fluoro-3-(methyloxy)phenyl]-1-methylethyl}-1-(4-fluorophenyl)-1H-imidazol-2-yl]thio}methyl)phenyl]carbonyl}amino)ethyl]-4-aza-1-azoniabicyclo[2.2.2]octane] | < 0.1 | < 0.1
8 | COc1cc(-n2c(C(C)(C)c3ccc(Cl)c(Cl)c3)cnc2SCc2c(F)cc(C(=O)NCC[N+]34CCN(CC3)CC4)cc2Cl)ccc1F [Example 2b, 1-{2-[({3-chloro-4-[({5-[1-(3,4-dichlorophenyl)-1-methylethyl]-1-[4-fluoro-3-(methyloxy)phenyl]-1H-imidazol-2-yl}thio)methyl]-5-fluorophenyl}carbonyl)amino]ethyl}-4-aza-1-azoniabicyclo[2.2.2]octane] | < 0.1 | < 0.1
9 | COc1cc(C(C)(C)c2cnc(SCc3c(F)cc(C(=O)NC4CC[N+](C)(C)CC4)cc3Cl)n2-c2ccc(F)cc2)ccc1Cl [Example 2c, 4-({[3-chloro-4-({[5-{1-[4-chloro-3-(methyloxy)phenyl]-1-methylethyl}-1-(4-fluorophenyl)-1H-imidazol-2-yl]thio}methyl)-5-fluorophenyl]carbonyl}amino)-1,1-dimethylpiperidinium] | < 0.1 | < 0.1
10 | COc1cc(C(C)(C)c2cnc(SCc3c(F)cc(C(=O)N[C@H]4CCC[N+](C)(C)C4)cc3Cl)n2-c2ccc(F)cc2)ccc1Cl [Example 2d, (3S)-3-({[3-chloro-4-({[5-{1-[4-chloro-3-(methyloxy)phenyl]-1-methylethyl}-1-(4-fluorophenyl)-1H-imidazol-2-yl]thio}methyl)-5-fluorophenyl]carbonyl}amino)-1,1-dimethylpiperidinium] | < 0.1 | < 0.1
11 | COc1cc(C(C)(C)c2cnc(SCc3c(F)cc(C(=O)N[C@H]4CC[N+](C)(Cc5ccc(F)cc5)C4)cc3Cl)n2-c2ccc(F)cc2)ccc1Cl (stereo partly drawn) [Example 2e, (3S)-3-({[3-chloro-4-({[5-{1-[4-chloro-3-(methyloxy)phenyl]-1-methylethyl}-1-(4-fluorophenyl)-1H-imidazol-2-yl]thio}methyl)-5-fluorophenyl]carbonyl}amino)-1-[(4-fluorophenyl)methyl]-1-methylpyrrolidinium] | < 0.1 | < 0.1
12 | COc1cc(C(C)(C)c2cnc(SCc3c(F)cc(C(=O)N[C@H]4CC[N+](C)(C)C4)cc3Cl)n2-c2ccc(F)cc2)ccc1Cl [Example 2f, (3S)-3-({[3-chloro-4-({[5-{1-[4-chloro-3-(methyloxy)phenyl]-1-methylethyl}-1-(4-fluorophenyl)-1H-imidazol-2-yl]thio}methyl)-5-fluorophenyl]carbonyl}amino)-1,1-dimethylpyrrolidinium] | < 0.1 | < 0.1
13 | COc1cc(C(C)(C)c2cnc(SCc3c(F)cc(C(=O)N[C@@H]4CCC[N+](C)(C)C4)cc3Cl)n2-c2ccc(F)cc2)ccc1Cl [Example 2g, (3R)-3-({[3-chloro-4-({[5-{1-[4-chloro-3-(methyloxy)phenyl]-1-methylethyl}-1-(4-fluorophenyl)-1H-imidazol-2-yl]thio}methyl)-5-fluorophenyl]carbonyl}amino)-1,1-dimethylpiperidinium] | < 0.1 | < 0.1
14 | COc1cc(C(C)(C)c2cnc(SCc3c(F)cc(C(=O)N[C@@H]4CC[N+](C)(C)C4)cc3Cl)n2-c2ccc(F)cc2)ccc1Cl [Example 2h, (3R)-3-({[3-chloro-4-({[5-{1-[4-chloro-3-(methyloxy)phenyl]-1-methylethyl}-1-(4-fluorophenyl)-1H-imidazol-2-yl]thio}methyl)-5-fluorophenyl]carbonyl}amino)-1,1-dimethylpyrrolidinium] | < 0.1 | < 0.1
15 | COc1cc(C(C)(C)c2cnc(SCc3c(F)cc(C(=O)NCC[N+]4(C)CC[N+](C)(C)CC4)cc3Cl)n2-c2ccc(F)cc2)ccc1Cl [Example 2i, 1-[2-({[3-chloro-4-({[5-{1-[4-chloro-3-(methyloxy)phenyl]-1-methylethyl}-1-(4-fluorophenyl)-1H-imidazol-2-yl]thio}methyl)-5-fluorophenyl]carbonyl}amino)ethyl]-1,4,4-trimethylpiperazinediium] | 0.1 to 1 | 0.1 to 1
16 | COc1cc(C(C)(C)c2cnc(SCc3c(F)cc(C(=O)NCC[N+]4(C)CCOCC4)cc3Cl)n2-c2ccc(F)cc2)ccc1Cl [Example 2j, 4-[2-({[3-chloro-4-({[5-{1-[4-chloro-3-(methyloxy)phenyl]-1-methylethyl}-1-(4-fluorophenyl)-1H-imidazol-2-yl]thio}methyl)-5-fluorophenyl]carbonyl}amino)ethyl]-4-methylmorpholin-4-ium] | 1 to 10 | 1 to 10
17 | COc1cc(-n2c(C(C)(C)c3ccc4onc(N)c4c3)cnc2SCc2c(F)cc(C(=O)N[C@H]3CC[N+](C)(C)C3)cc2F)ccc1F [Example 2k, (3S)-3-[({4-[({5-[1-(3-amino-1,2-benzisoxazol-5-yl)-1-methylethyl]-1-[4-fluoro-3-(methyloxy)phenyl]-1H-imidazol-2-yl}thio)methyl]-3,5-difluorophenyl}carbonyl)amino]-1,1-dimethylpyrrolidinium] | < 0.1 | < 0.1
18 | COc1cc(C(C)(C)c2cnc(SCc3c(F)cc(C(=O)N4CCC([N+](C)(C)C)CC4)cc3Cl)n2-c2ccc(F)cc2)ccc1Cl [Example 2l, 1-{[3-chloro-4-({[5-{1-[4-chloro-3-(methyloxy)phenyl]-1-methylethyl}-1-(4-fluorophenyl)-1H-imidazol-2-yl]thio}methyl)-5-fluorophenyl]carbonyl}-N,N,N-trimethylpiperidin-4-aminium] | < 0.1 | < 0.1
19 | COc1cc(C(C)(C)c2cnc(SCc3c(F)cc(C(=O)NCC4(O)CC[N+](C)(C)CC4)cc3Cl)n2-c2ccc(F)cc2)ccc1Cl [Example 2m, 4-[({[3-chloro-4-({[5-{1-[4-chloro-3-(methyloxy)phenyl]-1-methylethyl}-1-(4-fluorophenyl)-1H-imidazol-2-yl]thio}methyl)-5-fluorophenyl]carbonyl}amino)methyl]-4-hydroxy-1,1-dimethylpiperidinium] | < 0.1 | < 0.1
